Here are results for two compounds from patent publication US20210322507A1, “GENOTYPE-DIRECTED LOCAL DELIVERY OF TARGETED THERAPEUTICS” (Massachusetts Institute of Technology, priority 2017, published 2021).

For data set [1] the following is noted: given systemically; cited from earlier work.
The nature of data set [2]: Pharmacokinetic analysis of GMX-1778 after oral gavage (plasma and brain, UPLC-ESI-MS). The data set is classed as in vivo, SCID mice. Particulars: 250 mg/kg oral gavage. As to the method: GMX-1778 was dissolved in 20% captisol (CyDex) and administered by oral gavage to 6-7 week old female SCID mice at a dose of 250 mg/kg. Vehicle treated animals received similar volume of 5% dextrose prepared in 20% captisol by oral gavage. GMX-1778 treated animals were sacrificed at 30 minutes, 2 hours, 6 hours and 24 hours following treatment. Blood was collected by cardiac puncture and centrifuged at 6000 g for 5 minutes. The brain was homogenized in 3 volumes of PBS with 5% bovine serum albumin (Sigma-Aldrich). GMX-1778 was then extracted into the organic phase by a modified protocol described previously^31. Briefly, 25 μL plasma or 100 μL brain homogenate was added to 10 μL FK-866 (250 ng/mL prepared in methanol). Then, 800 μL ethyl acetate was added and the sample was vortexed and mixed overnight. The sample was then centrifuged at 3000 rpm for 10 minutes and 600 μL supernatant was transferred to a new tube. The sample was dried overnight and reconstituted in 200 μL acetonitrile. Stock solutions of GMX-1778 and an internal standard FK-866 were prepared in acetonitrile at a concentration of 500 μg/mL. A10-point calibration curve ranging from 5 to 5000 ng/mL was prepared. Quality control samples were prepared by a similar procedure using an independent stock solution at three concentrations (25, 250, and 2500 ng/mL). For analysis, 2.5 μL sample was injected on the UPLC-ESI-MS system.
Ultra-performance LC (UPLC) separation was carried out on a Waters UPLC aligned with a Waters Xevo TQ-SMS mass spectrometer (Waters Ltd.). MassLynx 4.1 software was used for data acquisition and analysis. LC separation was performed on an Acquity UPLC High Strength Silica Trifunctional C18 (50 mm×2.1 mm; particle size, 1.8 μm) at 50° C. The mobile phase consisted of acetonitrile, 0.1% formic acid, 10 mM ammonium formate solution flowed at a rate of 0.6 mL/minute using a time and solvent gradient composition. The initial mobile phase composition (100%) was held for 1.0 minutes, and then changed to 20% over the next 0.25 minutes. […]

The nature of data set [3]: Systemic toxicity analysis of oral GMX-1778. The data set is classed as in vivo, SCID mice. As to the method:
Adult SCID female mice of 6-7 weeks were administered GMX-1778 daily for 5 days by oral gavage (250 mg/kg). Body weights were recorded prior to administration and at the end of the study. Blood samples were analyzed for complete blood count by HemaTrue (Heska Lab Systems) and chemistry panel by DriChem (Heska Lab Systems). Liver and heart were fixed in formalin and analyzed for histologic toxicity by hematoxylin and eosin (H&E) staining. Eyes were removed by enucleation and placed in Davidson's fixative for 24 hours prior to formalin and subsequently analyzed for toxicity on H&E slides.

For the compound `O=C(/C=C/c1cccnc1)NCCCCC1CCN(C(=O)c2ccccc2)CC1` [FK866], in data set [1], the “Blood-brain barrier penetration / brain accumulation” value is “does not measurably accumulate in the brain parenchyma”.

With `N#CN=C(NCCCCCCOc1ccc(Cl)cc1)Nc1ccncc1` [GMX-1778], the “Detectability of drug in brain within 24 hours” value in data set [2] (24 hours) is reported as “no longer detectable”. For the same compound, in data set [2] (SCID mice, at 2 hours), the “Maximum (peak) drug concentration in brain” value stood at 3.0 ± 1.5 µM and the “Maximum (peak) drug concentration in plasma” value was found to be 18.0 ± 3.6 µM. Further, the “Blood-brain barrier penetration / brain accumulation” value in data set [1] is recorded as “partially blood-brain barrier penetrant”. In addition, the “Liver histology (H&E)” value in data set [3] (250 mg/kg oral GMX-1778) is “eosinophilic cholangitis”. In addition, the “Hemoglobin (anemia)” value in data set [3] (250 mg/kg oral daily for 5 days, control 9.2±0.5 g/dL) came to 6.7 ± 0.8 g/dL. For the same compound, in data set [3] (250 mg/kg oral daily for 5 days, control 15±0.5 mg/dL), the “Uremia (chemistry panel)” value is 20.5 ± 1.9 mg/dL. Moreover, in data set [3] (250 mg/kg oral daily for 5 days, control dextrose 21.8±0.6 g), the “Body weight after administration (weight loss)” value came to 17.9 ± 1.1 g.
